Results reported in patent US11549123B2, “Plant EPSP synthases and methods of use” (PIONEER HI-BRED INTERNATIONAL, INC., priority 2015, dated 2023).
Numbering of substitutions follows the chain as printed.

Assays:
Format in all cases: biochemical
[1] = target: T1, Zea mays EPSPS variant Zm-H6 (868-H6) with V87T (H6-V87T) (Zea mays, UniProt O24566, A1R/A3W/A415G/A71Q/D401G/E301S/E390G/G101A/I207L/K83R/L97C/T278A/T360S/T440Q/V437R/V86T); assay: Rapid two-rate method for (kcat/KM)*KI, H6-V87T; details: [E] 0.07 uM, [Gly] 1000 uM
T1 construct: 868-H6 plus V87T; E. coli BL21(DE3), Ni-NTA purified
T1 sequence (O24566 with tags, fused parts or gaps A1R/A3W/A71Q/K83R/V86T/L97C/G101A/I207L/T278A/E301S/T360S/E390G/D401G/A415G/V437R/T440Q): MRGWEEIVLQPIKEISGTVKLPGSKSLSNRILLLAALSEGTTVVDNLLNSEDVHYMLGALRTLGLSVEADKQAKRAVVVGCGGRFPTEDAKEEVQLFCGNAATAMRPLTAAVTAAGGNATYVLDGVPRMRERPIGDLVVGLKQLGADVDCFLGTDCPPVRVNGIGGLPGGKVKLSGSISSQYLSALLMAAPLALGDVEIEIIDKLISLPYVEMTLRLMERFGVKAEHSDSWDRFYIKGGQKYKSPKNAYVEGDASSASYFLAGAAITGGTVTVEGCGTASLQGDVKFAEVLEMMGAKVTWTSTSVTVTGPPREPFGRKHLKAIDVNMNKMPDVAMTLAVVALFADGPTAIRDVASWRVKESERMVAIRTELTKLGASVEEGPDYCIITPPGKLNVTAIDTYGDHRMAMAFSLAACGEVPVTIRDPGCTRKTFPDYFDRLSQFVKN
Text: (§1) There are several practical considerations for accurately estimating (kcat/KM)*KI with the rapid method. […] 2) The inhibitor concentration must be adjusted so as to obtain a degree of inhibition that minimally amplifies the error in the term v0-vi in Equation 3. If inhibition is too little, v0-vi will be small, and the error in the multiplier vi×v0/(v0-vi) will be large. […] 3) Substrate concentration should be set at the approximate KM of the parental variant(s), subject to the sensitivity of the assay. High substrate concentration obscures sensitivity to the inhibitor and reduces stringency for capturing improvements in KM. Depending on the necessity for speed, there exists opportunity for customizing enzyme and inhibitor concentrations. […] The rapid method was repeated for those and obtained data that correlated better with data obtained by substrate saturation analysis. For screening purposes however, that correlation step is not necessary. Conditions can be set so that variants with a pre-determined minimal fitness level are accurately quantified.
(§2) In Table 15, parameters above the heavy line for the rapid method were obtained under standard conditions. For variants shown below the heavy line, the rapid analysis was repeated with enzyme or glyphosate concentrations adjusted as needed to generate sufficient signal within the limits for linear initial rates.

[2] = target: T1, Zea mays EPSPS variant Zm-H6 (868-H6) with V87T (H6-V87T); assay: Substrate saturation kinetic analysis with glyphosate, H6-V87T
[3] = target: EPSPS enzyme comprising 103I, 107S, and 445G (Zea mays, UniProt O24566, N444G/P106S/T102I); assay: kcat/KM*KI of EPSPS comprising 103I, 107S, 445G; details: glyphosate as inhibitor
Chain of EPSPS enzyme comprising 103I, 107S, and 445G (O24566 entry or part of it T102I/P106S/N444G): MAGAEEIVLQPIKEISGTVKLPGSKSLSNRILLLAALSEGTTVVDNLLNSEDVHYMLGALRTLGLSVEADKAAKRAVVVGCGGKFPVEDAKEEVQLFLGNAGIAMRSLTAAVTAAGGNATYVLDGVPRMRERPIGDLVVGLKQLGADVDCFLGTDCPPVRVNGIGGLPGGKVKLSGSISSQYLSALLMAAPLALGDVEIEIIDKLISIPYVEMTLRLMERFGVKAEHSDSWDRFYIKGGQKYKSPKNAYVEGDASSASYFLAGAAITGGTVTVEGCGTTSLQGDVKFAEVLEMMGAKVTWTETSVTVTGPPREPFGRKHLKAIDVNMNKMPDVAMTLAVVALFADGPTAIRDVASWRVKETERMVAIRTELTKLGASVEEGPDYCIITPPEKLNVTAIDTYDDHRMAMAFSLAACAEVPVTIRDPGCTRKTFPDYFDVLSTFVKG
Text: The EPSPS polypeptides and active variants and fragments thereof disclosed herein may have improved catalytic capacity in the presence of glyphosate when compared to previously identified EPSPS polypeptides. The parameter that best indicates the fitness of this trait in vivo is kcat/KM*KI. The EPSPS polypeptides disclosed herein can have an increased kcat/KM*KI, when compared to previously known EPSPS enzymes. By “increase” is intended any statistically significant increase when compared to an appropriate control. In some embodiments, an appropriate control is a previously known EPSPS sequence, such as that set forth in SEQ ID NO:2 (maize), SEQ ID NO:7 (rice), SEQ ID NO:8 (sorghum), SEQ ID NO:9 (sunflower), SEQ ID NO:13 (soybean), SEQ ID NO:14 (wheat), SEQ ID NO:15 (Brassica rapa), SEQ ID NO:16 (tomato), or SEQ ID NO:17 (potato). In some embodiments, the increase in the kcat/KM*KI when compared to SEQ ID NO:2, 7, 8 9, 13, 14, 15, 16, or 17 can comprise about a 150, 200, 250, 300, 350, 400, 450, 500, 550, 600, 650, 700, 750, 800-fold or greater increase. In still further embodiments, kcat/KM*KI may include, for example, a kcat/KM*KI of more than about 2000, 2500, 3000, 3500, 4000, 4500, 5000, 5500, 6000, 6500, 7000, 7500, 8000, 8500, 9000, 9500, 10000, or more.

[4] = target: T2, Zea mays EPSPS variant Zm-H6 (868-H6) with D196V (H6-D196V) (Zea mays, UniProt O24566, A1R/A3W/A415G/A71Q/D195V/D401G/E301S/E390G/G101A/I207L/K83R/L97C/T278A/T360S/T440Q/V437R); assay: Rapid two-rate method for (kcat/KM)*KI, H6-D196V; details: [E] 0.07 uM, [Gly] 1000 uM
T2 construct: shuffled variant 868-H6 plus D196V; E. coli BL21(DE3), Ni-NTA purified
T2 sequence (O24566 with tags, fused parts or gaps A1R/A3W/A71Q/K83R/L97C/G101A/D195V/I207L/T278A/E301S/T360S/E390G/D401G/A415G/V437R/T440Q): T1 sequence (O24566 with tags, fused parts or gaps A1R/A3W/A71Q/K83R/V86T/L97C/G101A/I207L/T278A/E301S/T360S/E390G/D401G/A415G/V437R/T440Q) with T87V, D196V
Text: as §1, §2

[5] = target: T3, Zea mays EPSPS, wild-type, SEQ ID NO:1 (Zea mays, UniProt O24566); assay: EPSPS reaction rate with or without 10 uM glyphosate, native maize; details: pH 7; read-out: Reaction rate with 10 μM glyph, % no glyph; also: 50 µM PEP and S3P
T3 construct: expressed in E. coli, purified
T3 sequence (O24566 entry or part of it): as the sequence (O24566 entry or part of it T102I/P106S/N444G) above, with I103T, S107P, G445N counted along it

O=C(O)CNCP(=O)(O)O [glyphosate, N-phosphonomethylglycine]
(kcat/KM)*KI [1]: 3190 | Ki [2]: 348 µM | (kcat/KM)*KI ([2]; substrate saturation, H6-V87T): 3280 | (kcat/KM)*KI [3]: 2254 | (kcat/KM)*KI [4]: 1704 | activity at 10 µM [5]: 9.49%
